From patent US20080280877A1, “Azetidines” (Pfizer Inc, priority 2007, published 2008)

Target: T1, recombinant human EP-2 receptor (Homo sapiens, UniProt P43116)
T1 construct: cell line stably transfected with full length cDNA encoding human Prostaglandin E2 was established; expressed in transfected cells; host or cells: CHO (Chinese hamster ovary) cells, stably transfected
Assay: in vitro antagonist potency against recombinant human EP-2 receptor in CHO cells (cAMP, Protocol 1)
Format: cell-based
Details: functional Ki by Cheng-Prusoff from IC50; CHO cells stimulated with PGE2 (5 nM); cAMP readout; read-out: EP2 Ki
Description: 1.0 Measurement of in vitro Antagonist Potency (IC50) of Compounds Against Recombinant Human Prostaglandin E2 Receptor in CHO Cells
The prostaglandin E2 (EP-2) receptor is Gs coupled and agonism of the receptor by PGE2 results in activation of intracellular adenylate cyclase enzymes that synthesise the second messenger signalling molecule, adenosine 3′,5′-cyclic monophosphate (cAMP). […] Decreases in cAMP levels following treatment of stimulated recombinant EP-2 cells with potential antagonist compounds were measured and potency (IC50) calculated as follows. A Chinese hamster ovary (CHO) cell line stably transfected with full length cDNA encoding human Prostaglandin E2 was established using standard molecular biology methods. Test compounds were dissolved in dimethyl sulphoxide (DMSO) at 4 mM. 11 point half log unit increment dilution series of test compound were prepared in DMSO then diluted 1 in 40 in a buffer comprised of phosphate buffered saline (PBS) and 0.05% pluronic F-127 surfactant. Freshly cultured cells at 80-90% confluence were harvested and re-suspended in 90% growth media/10% DMSO. The cells were frozen using a planar freezer and stored in frozen aliquots in cryovials in liquid nitrogen until the day of the experiment. A vial of cells was defrosted in a 37° C. water bath for 2 min, then transferred to 10 ml of Dulbecco's Modified Eagle's Medium (DMEM). The cells were then centrifuged for 5 min at 1000 g and the pellet re-suspended at 1,000,000 cells/ml in DMEM. 5,000 cells (5 ul) were added to 5 ul of the compound dilution series in a 384 well assay plate and pre-incubated for 30 min at 37° C. 5 ul of agonist (15 nM PGE2 in PBS to give 5 nM FAC) was added and plates further incubated for 90 min at 37° C. The relative cAMP concentration in each well was then measured using a ? -galactosidase enzyme fragment complementation method purchased in kit form as the Discoverx cAMP II kit from GE Healthcare, UK. […] Sigmoidal curves were fitted to plots of log10 inhibitor concentration vs. percent effect. IC50 estimates were determined as the concentration of test compound giving an effect half way between the bottom and top asymptotes of the sigmoidal dose response curve. Each experiment included an IC50 determination for the literature compound as a standard to track assay consistency and allow fair comparison between values obtained in different experiments. The EC50 of PGE2 is used in combination with the ligand concentration in the assay to determine Ki values for antagonist dose responses using the Cheng-Prusoff equation. Consequently an agonist dose response curve is carried out for each experiment using the same incubation as the antagonist plate.

T1 sequence (P43116 whole entry): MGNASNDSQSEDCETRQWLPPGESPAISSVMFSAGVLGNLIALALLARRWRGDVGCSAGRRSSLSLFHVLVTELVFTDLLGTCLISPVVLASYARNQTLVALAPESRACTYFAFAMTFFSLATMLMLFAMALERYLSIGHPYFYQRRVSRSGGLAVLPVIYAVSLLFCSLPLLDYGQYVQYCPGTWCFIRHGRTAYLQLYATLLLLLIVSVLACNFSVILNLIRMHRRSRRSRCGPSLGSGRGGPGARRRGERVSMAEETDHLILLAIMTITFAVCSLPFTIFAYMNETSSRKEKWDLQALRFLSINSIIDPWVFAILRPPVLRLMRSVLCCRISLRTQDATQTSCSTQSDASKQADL

| SMILES | Ki |
| --- | --- |
| O=C(c1ccc(F)cc1)N1CC(COc2ccc3nc(-c4ccccn4)sc3c2)(C(=O)O)C1 [Example 7] | 1.4 nM |
| COc1ccc2cc(OCC3(C(=O)O)CN(C(=O)Nc4ccccc4F)C3)ccc2c1 [Example 66] | 102 nM |
| CCOc1ccc(C(=O)N2CC(COc3ccc4nc(C)ccc4c3)(C(=O)O)C2)cc1 [Example 34] | 338 nM |
| COc1ccc2ccc(OCC3(C(=O)O)CN(C(=O)c4ccc(F)cc4)C3)cc2c1 [Example 29] | 196 nM |
| O=C(c1ccc(F)cc1)N1CC(COc2cnc3ccccc3c2)(C(=O)O)C1 [Example 33] | 304 nM |
| CCCc1ccc(OCC2(C(=O)O)CN(C(=O)Nc3ccccc3CC)C2)cc1 [Example 69] | 560 nM |
| CCCOc1ccc(OCC2(C(=O)O)CN(C(=O)Nc3cccc(Cl)c3Cl)C2)cc1 [Example 67, 1-{[(2,3-Dichlorophenyl)amino]carbonyl}-3-[(4-propoxyphenoxy)methyl]azetidine-3-carboxylic acid] | 110 nM |
| Cc1ccc2cc(OCC3(C(=O)O)CN(C(=O)c4ccccc4)C3)ccc2n1 [Example 32] | 271 nM |
| COc1ccc(OC(=O)N2CC(COc3ccc4cc(OC)ccc4c3)(C(=O)O)C2)cc1 [Example 62] | 12.4 nM |
| COc1cccc(C(=O)N2CC(COc3ccc4nc(C)ccc4c3)(C(=O)O)C2)c1 [Example 31] | 233 nM |
| O=C(c1ccc(F)cc1)N1CC(COc2ccc(Br)cc2)(C(=O)O)C1 [Example 53, 3-[(4-Bromophenoxy)methyl]-1-(4-fluorobenzoyl)azetidine-3-carboxylic acid] | 615 nM |
| Cc1ccc2cc(OCC3(C(=O)O)CN(C(=O)c4cccc(Cl)c4)C3)ccc2n1 [Example 26] | 125 nM |
| CCOC(=O)C1(COc2ccc3cc(OC)ccc3c2)CN(C(=O)c2ccc(F)cc2)C1 [Example 51, Ethyl 1-(4-fluorobenzoyl)-3-{[(6-methoxy-2-naphthyl)oxy]methyl}azetidine-3-carboxylate] | 333 nM |
| Cc1cc(C)c2cc(OCC3(C(=O)O)CN(C(=O)c4ccc(F)cc4)C3)ccc2n1 [Example 24] | 103 nM |
| Cc1ccc2cc(OCC3(C(=O)O)CN(C(=O)c4ccc(F)cc4)C3)ccc2n1 [Example 25] | 122 nM |
| COc1ccc2cc(OCC3(C(=O)O)CN(C(=O)Nc4cccc(F)c4)C3)ccc2c1 [Example 63, 1-{[(3-Fluorophenyl)amino]carbonyl}-3-{[(6-methoxy-2-naphthyl)oxy]methyl}azetidine-3-carboxylic acid] | 50.6 nM |
| COc1ccc2cc(OCC3(C(=O)O)CN(C(=O)Oc4ccc(F)cc4)C3)ccc2c1 [Example 60, 1-[(4-Fluorophenoxy)carbonyl]-3-{[(6-methoxy-2-naphthyl)oxy]methyl}azetidine-3-carboxylic acid] | 268 nM |
| O=C(c1ccccc1)N1CC(COc2ccc3ccccc3c2)(C(=O)O)C1 [Example 28] | 175 nM |
| CCOc1ccccc1C(=O)N1CC(COc2ccc3cc(OC)ccc3c2)(C(=O)O)C1 [Example 18] | 19.7 nM |
| O=C(c1ccc(F)cc1)N1CC(COc2ccc(-c3ccccn3)nc2)(C(=O)O)C1 [Example 27] | 146 nM |
| O=C(C1CCC(F)(F)CC1)N1CC(COc2ccc(-c3ccc(Cl)cc3)cc2)(C(=O)O)C1 [Example 54, 3-{[(4′-Chlorobiphenyl-4-yl)oxy]methyl}-1-[(4,4-difluorocyclohexyl)carbonyl]azetidine-3-carboxylic acid] | 10.9 nM |
| Cc1ccc2cc(OCC3(C(=O)O)CN(C(=O)c4ccc(Cl)cc4)C3)ccc2n1 [Example 23] | 101 nM |
| COc1ccc2cc(OCC3(C(=O)O)CN(C(=O)Nc4cccc(Cl)c4)C3)ccc2c1 [Example 64] | 7.5 nM |
| CSc1ccc(NC(=O)N2CC(COc3cccc(C)c3C)(C(=O)O)C2)cc1 [Example 68, 3-[(2,3-Dimethylphenoxy)methyl]-1-({[4-(methylthio)phenyl]amino}carbonyl)azetidine-3-carboxylic acid] | 603 nM |
| COc1ccc2cc(OCC3(C(=O)O)CN(C(=O)Nc4ccc(F)cc4)C3)ccc2c1 [Example 65] | 55.6 nM |
| O=C(c1ccccc1)N1CC(COc2cnc(-c3ccccc3)cn2)(C(=O)O)C1 [Example 45, 1-Benzoyl-3-{[(5-phenylpyrazin-2-yl)oxy]methyl}azetidine-3-carboxylic acid] | 56.7 nM |
| COc1ccc2nc(OCC3(C(=O)O)CN(C(=O)c4ccccc4)C3)ccc2c1 [Example 48] | 79.7 nM |

Other lines, results leading:

| Ki | SMILES |
| --- | --- |
| 5 nM | O=C(c1ccccc1)N1CC(COc2cnc(-c3ccc(Cl)cc3)cn2)(C(=O)O)C1 [Example 42] |
| 5.6 nM | O=C(c1ccc(F)cc1)N1CC(COc2ccc(-c3ccc(F)cc3F)cc2)(C(=O)O)C1 [Example 44] |
| 3.1 nM | O=C(c1ccc(F)cc1)N1CC(COc2ccc(-c3ccc(Cl)cc3)cc2)(C(=O)O)C1 [Example 10] |
| 3.3 nM | O=C(c1ccc(F)cc1)N1CC(COc2ccc(-c3ccc(Cl)cn3)cc2)(C(=O)O)C1 [Example 12] |
| 27.7 nM | O=C(c1ccccc1)N1CC(COc2ccc(-c3ccccc3)cc2)(C(=O)O)C1 [Example 21] |
| 1.6 nM | O=C(c1ccc(Cl)cc1)N1CC(COc2ccc(-c3ccc(Cl)cc3)cc2)(C(=O)O)C1 [Example 4] |
| 1.1 nM | O=C(c1ccc(Cl)cc1)N1CC(COc2ccc(-c3ccc(F)cc3)cc2)(C(=O)O)C1 [Example 2] |
| 53.9 nM | O=C(c1ccc(F)cc1)N1CC(COc2ccc(-c3ccccn3)cc2)(C(=O)O)C1 [Example 22] |
| 525 nM | O=C(c1ccc(Cl)cc1)N1CC(COc2cccc(-c3ccccc3)c2)(C(=O)O)C1 [Example 35] |
| 19.5 nM | O=C(c1ccc(Cl)cc1)N1CC(COc2ccc(-c3ccccc3)cc2)(C(=O)O)C1 [Example 17] |
| 6.6 nM | O=C(c1ccc(F)cc1)N1CC(COc2ccc(-c3ncc(Cl)cn3)cc2)(C(=O)O)C1 [Example 9] |
| 6 nM | COc1ccc2cc(OCC3(C(=O)O)CN(C(=O)c4ccc(Cl)cc4)C3)ccc2c1 [Example 13] |
| 37.2 nM | COc1ccc(-c2cnc(OCC3(C(=O)O)CN(C(=O)c4ccccc4)C3)nc2)cc1 [Example 46] |
| 0.7 nM | O=C(c1ccc(F)cc1)N1CC(COc2ccc(-c3ccc4ccccc4n3)cc2)(C(=O)O)C1 [Example 3] |
| 752 nM | O=C(c1ccc(F)cc1)N1CC(COc2cccc(-c3ccccc3)c2)(C(=O)O)C1 [Example 37] |
| 69.3 nM | O=C(c1ccc(Cl)cc1)N1CC(COc2ccc(-c3ccccc3)nn2)(C(=O)O)C1 [Example 47] |
| 705 nM | O=C(c1ccccc1)N1CC(COc2cccc(-c3ccccc3)c2)(C(=O)O)C1 [Example 36] |
| 31.4 nM | CCCOc1ccc(OCC2(C(=O)O)CN(C(=O)c3ccc(Cl)cc3)C2)cc1 [Example 38] |
| 2.3 nM | N#Cc1ccc(-c2ccc(OCC3(C(=O)O)CN(C(=O)c4ccc(F)cc4)C3)cc2)cc1 [Example 6] |
| 2.3 nM | O=C(c1ccc(F)cc1)N1CC(COc2ccc(-c3cc4ccccc4nn3)cc2)(C(=O)O)C1 [Example 8] |
| 7.5 nM | O=C(c1ccc(F)cc1)N1CC(COc2ccc(-c3ccc(F)cc3)cc2)(C(=O)O)C1 [Example 16] |
| 10.5 nM | O=C(c1ccc(F)cc1)N1CC(COc2cnc(-c3ccc(Cl)cc3)nc2)(C(=O)O)C1 [Example 11] |
| 1.9 nM | O=C(c1ccc(Cl)cc1)N1CC(COc2ccc(-c3ccc(Cl)cn3)cc2)(C(=O)O)C1 [Example 5] |
| 5.2 nM | O=C(c1ccc(F)cc1)N1CC(COc2ccc(-c3cccc(Cl)c3)cc2)(C(=O)O)C1 [Example 43] |
